Results reported in patent US9447187B2, “Use of an anti-CD200 antibody for prolonging the survival of allografts” (Alexion Pharmaceuticals, Inc., priority 2011, dated 2016).
Where “and” joins values, the source holds several entries; their conditions need not be identical. Equal entries are not always repeated.

Tested on: cardiac allograft (C57BL/6 to BALB/c mice)
Test: C57BL/6 to BALB/c fully MHC-mismatched mouse heart transplantation model (graft survival, pulsation)
Assay type: in vivo
Description: The studies described in this section examined graft survival in a C57BL/6 to BALB/c fully MHC-mismatched mouse heart transplantation model. Each experimental group included 4-6 animals. Some of the experimental groups were treated with antibodies. […] Antibody 4 is a control, murine monoclonal antibody that shares a variable region with Antibody 2. […]
An experiment was also performed to evaluate whether use of an anti-CD200 antibody can reduce the duration or amount of mycophenolate mofetil that is necessary to prolong the survival of an allograft in a recipient mammal. First, a pilot experiment was performed to determine the dose of, and duration of, mycophenolate mofetil required to prolong allograft survival in mice. As described in Example 3, these studies examined graft survival in a C57BL/6 to BALB/c fully MHC-mismatched mouse heart transplantation model. Each experimental group included five (5) animals. The three experimental groups were treated as follows:
Group 1-PE (pilot experiment): cardiac allograft-bearing mice were orally administered mycophenolate mofetil at a dose of 120 mg/kg each day of the study beginning at the time of transplant;
Group 2-PE: cardiac allograft-bearing mice were orally administered mycophenolate mofetil at a dose of 80 mg/kg each day of the study beginning at the time of transplant; and
Group 3-PE: cardiac allograft-bearing mice were orally administered FK-506 at a dose of 16 mg/kg for each day of the study beginning at the time of transplant. […]
(§1) As described in Example 3, these studies examined graft survival in a C57BL/6 to BALB/c fully MHC-mismatched mouse heart transplantation model. Each experimental group included five (5) animals. The five experimental groups were treated as follows: […]
as §1, with “The three” for “The five”, “as follows, with treatment beginning at the time of transplantation:” for “as follows:”

Compound	Individual Survival (FK-506 alone, 16 mg/kg orally each day of the study, 16 mg/kg)	Individual Survival (mycophenolate mofetil alone, 80 mg/kg orally each day of the study (pilot experiment), 80 mg/kg)	Mean Survival (mycophenolate mofetil alone, 80 mg/kg orally each day of the study (pilot experiment), listed as MMF, 80 mg/kg)	Individual Survival (mycophenolate mofetil alone, 120 mg/kg orally each day of the study (pilot experiment), 120 mg/kg)
C=CC[C@@H]1/C=C(\C)C[C@H](C)C[C@H](OC)[C@H]2O[C@@](O)(C(=O)C(=O)N3CCCC[C@H]3C(=O)O[C@H](/C(C)=C/[C@@H]3CC[C@@H](O)[C@H](OC)C3)[C@H](C)[C@@H](O)CC1=O)[C@H](C)C[C@@H]2OC [FK-506, tacrolimus]	23 days and 25 days (2×) and 26 days and 27 days			
COc1c(C)c2c(c(O)c1C/C=C(\C)CCC(=O)OCCN1CCOCC1)C(=O)OC2 [mycophenolate mofetil]		18 days and 19 days and 20 days and 22 days (2×)	approximately 20.2 days	20 days and 21 days and 22 days and 23 days and 25 days
